The text below walks through data of US20260274833A1 (NiKang Therapeutics, Inc., priority 2022, published 2026).

This test addresses T1, CDK2 (Homo sapiens, UniProt P24941).
T1 construct: endogenous in cells; host or cells: OVCAR3 cells
Briefly: Phospho-RB measurement in OVCAR3 cells (HTRF phospho-RB cellular kit). It is filed as cell-based. The following applies: inhibition of RB phosphorylation at S807/811 (HTRF, TR-FRET ratio 665/620), 24 h compound treatment, 0.3 to 10,000 nM. The procedure, abridged: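 IC50 came from a four-parameter logistic fit of the DMSO-normalized TR-FRET ratio (665/620 nm). That ratio reflects RB phosphorylation at S807/811, read with an HTRF antibody pair 4 h after adding lysate at room temperature.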
For orientation: In TR-FRET formats the signal depends on donor and acceptor labels being close together.
With `CN(C1CC1)S(=O)(=O)Nc1cccc(-c2nc(C(C)(C)C)sc2-c2ccnc(NC3CCN(S(=O)(=O)N4CCNCC4)CC3)n2)c1F` [Example 108, N-(3-(2-(tert-butyl)-5-(2-((1-(piperazin-1-yl-sulfonyl)piperidin-4-yl)amino)-pyrimidin-4-yl)thiazol-4-yl)-2-fluoro-phenyl)(N-methyl-N-cyclopro-pylamine)-sulfonamide], the IC50 (in general, the concentration that inhibits the measured activity by half) turned out to be 2070 nM.
Regarding `CC(C)(C)c1nc(-c2cccc(NS(=O)(=O)N3CCOc4ncccc4C3)c2F)c(-c2ccnc(NC3CCN(S(C)(=O)=O)CC3)n2)s1` [Example 110, N-(3-(2-(tert-butyl)-5-(2-((1-(methylsulfonyl)-piperidin-4-yl)amino)-pyrimidin-4-yl)thiazol-4-yl)-2-fluoro-phenyl)-2,3-dihydropyrido [3,2-f][1,4]-oxazepine-4 (5H)-sulfonamide], the IC50 worked out at 1030 nM.
On to `COCCOCCN1CCN(c2ccc(Nc3nccc(-c4sc(C(C)(C)C)nc4-c4cccc(NS(=O)(=O)N5CCc6ccc(C#N)cc65)c4F)n3)cc2)CC1` [Example 234, N-(3-(2-(tert-butyl)-5-(2-((4-(4-(2-(2-methoxy-ethoxy)ethyl)piperazin-1-yl)phenyl)amino)-pyrimidin-4-yl)thiazol-4-yl)-2-fluorophenyl)-6-cyanoindoline-1-sulfonamide], for which the concentration for half-maximal inhibition (IC50) amounted to 1200 nM.
Turning to `O=S1(=O)CC2(CC(Nc3nccc(-c4sc(C56CC(C5)C6)nc4-c4cccc(NS(=O)(=O)N5Cc6cccc(C(F)(F)F)c6C5)c4F)n3)C2)C1` [Example 25, N-(3-(2-(bicyclo [1.1.1]pentan-1-yl)-5-(2-((2,2-dioxido-2-thiaspiro[3.3]heptan-6-yl)amino)-pyrimidin-4-yl)thiazol-4-yl)-2-fluorophenyl)-4-(trifluoromethyl)-isoindoline-2-sulfonamide], the 50% inhibitory concentration (IC50) was found to be 75.1 nM.
As to `CC(C)(C)c1nc(-c2cccc(NS(=O)(=O)N3CCc4c(C#N)cccc43)c2F)c(-c2ccnc(NC3CCN(S(C)(=O)=O)CC3)n2)s1` [Example 104, N-(3-(2-(tert-butyl)-5-(2-((1-(methylsulfonyl)piperidin-4-yl)amino)-pyrimidin-4-yl)thiazol-4-yl)-2-fluorophenyl)-4-cyanoindoline-1-sulfonamide], the half-maximal inhibitory concentration (IC50) worked out at 82 nM.
Next, `O=S1(=O)CC2(CC(Nc3nccc(-c4sc(C56CC(C5)C6)nc4-c4cccc(NS(=O)(=O)N5CC6CCC5CC6)c4F)n3)C2)C1` [Example 267, (1s,4s)-N-(3-(2-(bicyclo[1.1.1]pentan-]-yl)-5-(2-((2,2-dioxido-2-thiaspiro-[3.3]heptan-6-yl)amino)pyrimidin-4-yl)thiazol-4-yl)-2-fluorophenyl)-2-azabicyclo[2.2.2] octane-2-sulfonamide]: 9410 nM; `CN(C)CCN(C)S(=O)(=O)N1CCC(Nc2nccc(-c3sc(C(C)(C)C)nc3-c3cccc(NS(=O)(=O)N4CCOc5ccccc5C4)c3F)n2)CC1` [Example 105, N-(3-(2-(tert-butyl)-5-(2-((1-(N-(2-(dimethyl-amino)ethyl)-N-methyl-sulfamoyl)piperidin-4-yl)amino)-pyrimidin-4-yl)thiazol-4-yl)-2-fluoro-phenyl)-2,3-dihydrobenzo [f][1,4]-oxazepine-4 (5H)-sulfonamide]: 215 nM; `CC(C)(C)c1nc(-c2cccc(NS(=O)(=O)N3Cc4cc(F)c(F)cc4C3)c2F)c(-c2ccnc(NC3CCN(S(C)(=O)=O)CC3)n2)s1` [Example 77]: 367 nM.
On to `CN1CCN(S(=O)(=O)N2CCC(Nc3nccc(-c4sc(C(C)(C)C)nc4-c4cccc(NS(=O)(=O)N5Cc6ccncc6C5)c4F)n3)CC2)CC1` [Example 128, N-(3-(2-(tert-butyl)-5-(2-((1-((4-methylpiperazin-1-yl)sulfonyl)piperidin-4.yl)-amino)pyrimidin~4-yl)thiazol-4-yl)-2-fluorophenyl)-1,3-dihydro-2H-pyrrolo[3,4-c]-pyridine-2-sulfonamide], for which the concentration for half-maximal inhibition (IC50) came to 162 nM.
